{"source": "paper PMC9586926", "about": "“An efflux-susceptible antibiotic-adjuvant with systemic efficacy against mouse infections” (Scientific Reports, 2022)", "key": {"K. pneumoniae": {"tested_on": "K. pneumoniae", "assay": "MIC, broth microdilution", "format": "cell-based, Klebsiella pneumoniae", "details": "broth microdilution in LB, 18–24 h, 37 °C; n = 2 strains", "description": "(§1) Bacteria used in this study consisted of standard American Type Culture Collection (ATCC; Biological Industries, Beit Haemek, Israel) strains, clinically isolated (CI; Sourasky Medical Center, Tel Aviv, Israel) strains, as well as isogenic mutant strains. Gram-negative bacteria included Acinetobacter baumannii ATCC 19606; Escherichia coli ATCC 25922, 35218, CFT073, CI 14384, 16327, and the isogenic pair Ag100 (wild-type) and its efflux deficient mutant Ag100a (ΔacrAB); Klebsiella pneumoniae CI 1287, 224; Pseudomonas aeruginosa ATCC 27853, CI 1278, 8634; Salmonella enterica serovar Typhimurium ATCC 14028 (wild-type) and its isogenic efflux deficient mutant ΔacrAB. Bacteria were grown in Luria–Bertani broth (LB; 5 g/l NaCl, 5 g/l yeast extract, 10 g/l tryptone; pH = 7.0) at 37 °C with shaking. Over-night cultures were diluted 10-folds into fresh growth-medium and incubated at 37 °C with shaking until reaching mid-logarithmic phase. Then, bacterial concentrations were adjusted using O.D.600 nm measurements, and bacteria were subjected to the experimental procedures listed herein.\n(§2) MIC was determined according to the broth microdilution method: antimicrobials were subjected to serial twofold dilutions in LB medium, and incubated with 5 × 10^5 CFU/ml of bacteria (final volume of 200 µl) for 18–24 h at 37 °C. Then, O.D.620 nm was measured (BioTek Instruments Synergy HT; Winooski, VT, USA), and the MIC was defined as the lowest antimicrobial concentration for which no increase in O.D.620 nm was evident, compared to the untreated control."}, "E. coli 25922 [1]": {"tested_on": "E. coli 25922", "details": "same assessment tools; cited from earlier work", "description": "To our knowledge, the finding of an adjuvant whose activity is enhanced—rather than repressed—after efflux, is hitherto unreported. One might ask, at this point: If the K-, O and B-based analogs are efflux substrates (as implied by MIC data, Table 2), how come only C10BBc12B is positively affected by efflux?"}, "[2]": {"tested_on": "S. Typhimurium 14028ΔAcrAB", "details": "cited from earlier work", "description": "Table 2 Effect of RND pumps on growth-inhibitory activity. | column: MIC^a (µM) in LB / S. Typhimurium / Mutant"}, "E. coli Ag100a (ΔacrAB) [3]": {"tested_on": "E. coli Ag100a (ΔacrAB)", "details": "cited from earlier work", "description": "Table 2 Effect of RND pumps on growth-inhibitory activity. | column: MIC^a (µM) in LB / E. coli / Mutant"}, "E. coli": {"tested_on": "E. coli", "assay": "MIC, broth microdilution", "format": "cell-based, Escherichia coli", "details": "broth microdilution in LB, 18–24 h, 37 °C; n = 4 strains; published data in bold (not discernible)", "description": "as §1, §2"}, "[4]": {"tested_on": "E. coli Ag100 (wild-type)", "details": "cited from earlier work", "description": "Table 2 Effect of RND pumps on growth-inhibitory activity. | column: MIC^a (µM) in LB / E. coli / Wild-Type"}, "[5]": {"tested_on": "S. Typhimurium 14028 (wild-type)", "details": "cited from earlier work", "description": "Table 2 Effect of RND pumps on growth-inhibitory activity. | column: MIC^a (µM) in LB / S. Typhimurium / Wild-Type"}, "[6]": {"parameters": "method as in PMID 28329302", "details": "40 mg/kg dose; cited from earlier work"}, "A. baumannii": {"tested_on": "A. baumannii", "assay": "MIC, broth microdilution", "format": "cell-based, Acinetobacter baumannii", "details": "broth microdilution in LB, 18–24 h, 37 °C; n = 1 strain", "description": "as §1, §2"}, "RAW 264.7": {"tested_on": "RAW 264.7", "assay": "Cytotoxicity, Alamar blue", "format": "cell-based, murine", "details": "24 h incubation, read-out: IC50 RAW 264.7 (50% inhibition of cells respiration)", "method": "(§3) Cell lines used in this study included murine RAW 264.7 macrophages and human embryonic kidney HEK-293FT cells (ATCC, Biological Industries, Beit Haemek, Israel). Cells were grown in Dulbecco’s modified eagle medium (DMEM) containing […] glucose, L-glutamine, sodium bicarbonate and sodium pyruvate, supplemented with 10% fetal bovine serum and pen-strep, at 37 °C and 5% CO2.\n(§4) Lipopeptides cytotoxicity was determined using fluorescent measurements of reduced resazurin. 2 × 10^4 cells were first cultured in 96-well plates over-night (final volume of 100 µl) at 37 °C and 5% CO2. Then, the medium was removed and cells were incubated for an additional 24 h with serial twofold dilutions of the lipopeptides in growth medium. Then, 10 µl of Alamar blue were added and plates were incubated for 3 h, after which fluorescence (excitation: 530 nm; emission: 590 nm) of the reduced resazurin was recorded (BioTek Instruments Synergy HT; Winooski, VT, USA)."}, "murine RBC": {"tested_on": "murine RBC", "assay": "Hemolysis", "format": "cell-based", "details": "1% hematocrit murine RBC, 3 h, 37 °C", "method": "Permeabilization of red blood cells (RBC) was evaluated using absorbance measurements of extracellular hemoglobin. Serial twofold dilutions of lipopeptides were incubated with 1% hematocrit of murine RBC for 3 h at 37 °C with shaking. Samples were then centrifuged at 20,000 RCF for 5 min, and absorbance of the supernatants was measured at 450 nm (BioTek Instruments Synergy HT; Winooski, VT, USA). Percent hemolysis was then calculated by (AS − AN)/(AP − AN) × 100; where AS, AN, and AP represent the absorbance of the sample, negative control (PBS) and positive control (Milli-Q water), respectively. LC50 values were extracted from trend-lines generated for linear-regions of plots correlating lipopeptide concentrations and percent hemolysis."}, "HEK-293FT": {"tested_on": "HEK-293FT", "assay": "Cytotoxicity, Alamar blue", "format": "cell-based, human", "details": "24 h incubation, read-out: IC50 HEK-293FT (50% inhibition of cells respiration)", "method": "as §3, §4"}, "P. aeruginosa": {"tested_on": "P. aeruginosa", "assay": "MIC, broth microdilution", "format": "cell-based, Pseudomonas aeruginosa", "details": "broth microdilution in LB, 18–24 h, 37 °C; n = 3 strains", "description": "as §1, §2"}, "E. coli 25922 [7]": {"tested_on": "E. coli 25922", "assay": "Outer membrane permeabilization, NPN fluorescence", "format": "cell-based, Escherichia coli", "method": "Lipopeptides ability to permeabilize the OM was evaluated using fluorescent measurements of N-phenyl-1-naphthylamine (NPN)[67]. 200 µl of an over-night culture were diluted into 10 ml of fresh LB medium and incubated at 37 °C with shaking until reaching O.D.600 nm = 0.5. The culture was then centrifuged at 10,000 RCF for 3 min, the supernatant aspirated, and the pellet resuspended in equal volume of 5 mM HEPES containing 5 mM glucose (pH = 7.2). This suspension was then mixed with NPN (5 mM in acetone) to reach a final NPN concentration of 10 µM. Then, 190 µl of this mixture were dispensed into black microtiter plates, mixed with 10 µl of HEPES containing serial twofold dilutions of lipopeptides and fluorescence (excitation: 360 nm; emission: 460 nm) was recorded immediately for up to 10 min at 37 °C with shaking[29] (BioTek Instruments Synergy HT; Winooski, VT, USA). In a modified version of this assay, in which efflux was inhibited, bacteria (similarly prepared) were incubated with the lipopeptides in presence or absence of 100 µM CCCP for 5 min. Samples were then twice centrifuged at 10,000 RCF for 3 min, the supernatant aspirated, and the pellet resuspended in equal volume of 5 mM HEPES containing 20 mM glucose (pH = 7.2), so as to re-energize the efflux machinery. NPN was then added (final concentration of 10 µM) and fluorescence was recorded immediately thereafter."}, "[8]": {"tested_on": "E. coli Ag100 (wild-type)", "assay": "MIC, broth microdilution, wild-type strain", "format": "cell-based, Escherichia coli", "description": "as §1\n(§5) MIC was determined according to the broth microdilution method: antimicrobials were subjected to serial twofold dilutions in LB medium, and incubated with 5 × 10^5 CFU/ml of bacteria (final volume of 200 µl) for 18–24 h at 37 °C. […]"}, "E. coli Ag100a (ΔacrAB) [9]": {"tested_on": "E. coli Ag100a (ΔacrAB)", "assay": "MIC, broth microdilution, efflux deficient mutant", "format": "cell-based, Escherichia coli", "details": "Ag100a", "description": "as §1, §5"}, "[10]": {"tested_on": "S. Typhimurium 14028 (wild-type)", "assay": "MIC, broth microdilution, wild-type strain", "format": "cell-based, Salmonella enterica serovar Typhimurium", "description": "as §1, §5"}, "E. coli 25922 [11]": {"tested_on": "E. coli 25922", "assay": "Cytoplasmic membrane depolarization, DiSC3(5) fluorescence", "format": "cell-based, Escherichia coli", "details": "C10BBc12B up to 10 µM; PMB 2.5 µM", "method": "Lipopeptides aptitude to depolarize the CM was evaluated using fluorescent measurements of the transmembrane potential sensitive dye 3,3′-Dipropylthiadicarbocyanine iodide (DiSC3(5))[69]. Bacteria (O.D.600 nm = 0.1) were washed by centrifugation at 10,000 RCF for 5 min, supernatant aspiration, and pellet resuspension in 5 mM HEPES containing 20 mM glucose, 50 mM KCl and 0.2 mM EDTA (pH = 7.2). This suspension was mixed with DiSC3(5) (400 µM in DMSO) to reach a final DiSC3(5) concentration of 4 µM and was incubated in the dark for 1 h at 37 °C with shaking. Then, 180 µl of this mixture were dispensed into black microtiter plates and fluorescence was recorded (excitation: 622 nm; emission: 670 nm) at 37 °C with shaking until baseline stabilization (BioTek Instruments Synergy HT; Winooski, VT, USA). Finally, 20 µl of HEPES containing serial twofold dilutions of lipopeptides were added and fluorescence was recorded for up to 30 min at the same conditions."}, "[12]": {"tested_on": "S. Typhimurium 14028ΔAcrAB", "assay": "MIC, broth microdilution, efflux deficient mutant", "format": "cell-based, Salmonella enterica serovar Typhimurium", "description": "as §1, §5"}, "E. coli 25922 [13]": {"tested_on": "E. coli 25922", "details": "ref 23 (C14(ɷ5)OOc10O), ref 41 (PMBN); cited from earlier work", "description": "Towards better understanding the synergistic mechanism, we compared individual growth kinetics to determine contributions of each antimicrobial and assessed the type and extent of implicated membrane damages, assuming that low OM-permeability underlies the observed antibiotics inefficiencies by impeding their intracellular accumulation."}}, "note": "Read-outs that look alike come from different tables or passages of the source. Where a SMILES comes first, the peptide text is derived from it. [ ]: non-standard residue; d: D form. The star is where a group is joined. 12Ado = NCCCCCCCCCCCC(=O)O; Decanoyl = CCCCCCCCCC(=O)*; Orn = NCCC[C@H](N)C(=O)O", "data": [{"compound": "CCCCCCCCCC(=O)N[C@@H](CCCN)C(=O)N[C@@H](CCCN)C(=O)NCCCCCCCCCCCC(=O)N[C@@H](CCCN)C(N)=O", "note": "[C10OOc12O] (Decanoyl-[Orn][Orn][12Ado][Orn]-NH2)", "values": [{"measurement": "MIC K. pneumoniae (n=2)", "setting": "K. pneumoniae", "value": "> 50", "unit": "µM"}, {"measurement": "CM depolarization", "setting": "E. coli 25922 [1]", "value": "interact with the CM to the point of inducing its depolarization"}, {"measurement": "MIC (µM) in LB, S. Typhimurium Mutant", "setting": "[2]", "value": 6.2, "unit": "µM"}, {"measurement": "MIC (µM) in LB, E. coli Mutant", "setting": "E. coli Ag100a (ΔacrAB) [3]", "value": 6.2, "unit": "µM"}, {"measurement": "MIC E. coli (n=4)", "setting": "E. coli", "value": "≥ 50", "unit": "µM"}, {"measurement": "MIC (µM) in LB, E. coli Wild-Type", "setting": "[4]", "value": "> 50", "unit": "µM"}, {"measurement": "MIC (µM) in LB, S. Typhimurium Wild-Type", "setting": "[5]", "value": "> 50", "unit": "µM"}, {"measurement": "mortality", "setting": "[6]", "value": "mortality of another mouse was recorded within an hour"}, {"measurement": "MIC A. baumannii (n=1)", "setting": "A. baumannii", "value": "> 50", "unit": "µM"}, {"measurement": "IC50", "setting": "RAW 264.7", "value": "> 50", "unit": "µM"}, {"measurement": "LC50 Erythrocytes (50% hemolysis)", "setting": "murine RBC", "value": "> 50", "unit": "µM"}, {"measurement": "IC50", "setting": "HEK-293FT", "value": "> 50", "unit": "µM"}, {"measurement": "MIC P. aeruginosa (n=3)", "setting": "P. aeruginosa", "value": "> 50", "unit": "µM"}]}, {"compound": "Polymyxin B [reference compound]", "values": [{"measurement": "reduction of NPN fluorescence by 10 mM MgCl2", "setting": "E. coli 25922 [7]", "value": "much less"}, {"measurement": "MIC (µM) in LB, E. coli Wild-Type", "setting": "[8]", "value": 0.7, "unit": "µM"}, {"measurement": "MIC (µM) in LB, E. coli Mutant", "setting": "E. coli Ag100a (ΔacrAB) [9]", "value": 0.7, "unit": "µM"}, {"measurement": "MIC (µM) in LB, S. Typhimurium Wild-Type", "setting": "[10]", "value": 0.7, "unit": "µM"}, {"measurement": "CM depolarization (trans-membrane potential)", "setting": "E. coli 25922 [11]", "value": "rapid CM-depolarization"}, {"measurement": "MIC (µM) in LB, S. Typhimurium Mutant", "setting": "[12]", "value": 0.7, "unit": "µM"}]}, {"compound": "polymyxin B nonapeptide [PMBN]", "values": [{"measurement": "effect of sub-inhibitory concentrations on bacterial growth in absence of antibiotics", "setting": "E. coli 25922 [13]", "value": "transiently inhibited bacterial growth"}]}]}
